Results on one molecule are retold here after patent publication US20260256143A1, “HERBICIDAL COMPOSITION AND METHOD FOR CONTROLLING WEEDS” (Enko Chem, Inc., priority 2023, published 2026).

The test system of assay [1] is AMATU. The assay is described as follows: Field test, soil residual activity on bare soil (Example 71). Type of assay: in vivo, Amaranthus rudis. As to conditions: Amaranthus tuberculatus, 1008 h, 6 weeks after application, read-out: % growth inhibition AMATU. Here is the method:
(§1) Compound 1 and Compound 1 mixed with pyroxasulfone were tested at different field locations to evaluate the herbicides efficacy for controlling weeds by soil residual activity. All herbicide treatments were applied with a backpack CO2 pressurized sprayer at 190 L/ha volume. The herbicide applications were made to bare soil free of any vegetation to assess the efficacy of the different herbicides to suppress weeds germination and development. The herbicide treatments included Compound 1 formulated as 10% emulsified concentrate, pyroxasulfone as a commercial formulation (ZIDUA SC, BASF), or a mixture of Compound 1 and pyroxasulfone products prepared as a “tank-mix” before the field application. All herbicide field spray solution included ammonium sulfate final solution concentration of 2%. Different weeds species were assessed at the separate field locations. For each species, the herbicide efficacy to control weeds, assessed as % of suppressed weeds plants relative to the untreated control plots, was evaluated at 6 weeks after the herbicide application.

Assay [2] has as its system ABUTH. The assay is described as above. To be noted: Abutilon theophrasti, 1008 h, 6 weeks after application, read-out: % growth inhibition ABUTH. The class given is in vivo. As for the experimental part:
as §1

Assay [3] relates to AMAPA. The assay is described as above. Type of assay: in vivo. As to conditions: Amaranthus palmeri, 1008 h, 6 weeks after application, read-out: % growth inhibition AMAPA. As for the experimental part: as §1
Assay [4] deals with CHEAL. The assay is described as above. The class given is in vivo. As to conditions: Chenopodium album, 1008 h, Loc 6, pyroxasulfone 90 g a.i./ha, 6 weeks after application, read-out: % growth inhibition CHEAL. Here is the method:
as §1

The subject of assay [5] is DIGSA. The assay is described as above. The class given is in vivo. To be noted: Digitaria sanguinalis, 1008 h, Loc 5, pyroxasulfone 90 g a.i./ha, 6 weeks after application, read-out: % growth inhibition DIGSA. Here is the method: as §1
Assay [6] has as its system SETFA. The assay is described as above. The class given is in vivo. As to conditions: Setaria faberi, 1008 h, Loc 4, pyroxasulfone 90 g a.i./ha, 6 weeks after application, read-out: % growth inhibition SETFA. Here is the method:
as §1

Assay [7] concerns AMAPA. The experiment in a line: Greenhouse pre-emergence residual test (Example 73). Type of assay: in vivo, Amaranthus palmeri. To be noted: Amaranthus palmeri, pre-emergence; Dose 90 g a.i./ha; 17-21 DAT; read-out: Pre-emergence percent weed growth and germination inhibition AMAPA. Here is the method: (§2) Compound 1 was tested at several doses for residual weed control efficacy by itself or in combination as a tank mix with commercial herbicides. The following commercial products were used in tank mix with a 10% active emulsifiable concentrate formulation of Compound 1: S-metolachlor (Dual Magnum®, Syngenta), mesotrione (Callisto®, Syngenta), pyroxasulfone (Zidua® SC, BASF), metribuzin (Tricor DF™, United Phosphorus, Inc).
(§3) Accordingly, weed seeds were planted in 2-inch pots containing custom field soil mix (sandy loam with 3.3% organic matter, pH 7.0) and covered with a fine layer of the same soil. Three replicate pots were treated with each compound. Treatment consisting of the above formulation excluding active compound was applied as a treatment control (TC). Pots were treated with the test compound solution in a laboratory spray chamber fitted with 8003 even fan nozzles calibrated to deliver 187-200 L ha^−1 at 269 kPa. All treatments included the following inert ingredients in the final formulation; 1% Crop Oil Concentrate (v/v) (AGRI-DEX, Helena Agri) and 2.5% Ammonium sulphate (w/v). Compound 1 was incorporated into the soil by simulating rainfall equivalent to 0.2 mm using the same track sprayer. Subsequently, pots were irrigated from the bottom until weed control evaluation. Pots were placed back in the greenhouse and evaluated for percentage visual growth and germination inhibition compared to TC 17-21 days after treatment (DAT). Complete growth inhibition is represented by 100%.

Assay [8] has as its system AMATU. Described as above. Type of assay: in vivo, Amaranthus rudis. As to conditions: Amaranthus tuberculatus, pre-emergence; Dose 90 g a.i./ha; 17-21 DAT; read-out: Pre-emergence percent weed growth and germination inhibition AMATU. As for the experimental part: as §2, §3
For assay [9], the system named is KCHSC. The description is as above. As to conditions: Bassia scoparia, pre-emergence; Dose 90 g a.i./ha; 17-21 DAT; read-out: Pre-emergence percent weed growth and germination inhibition KCHSC. The class given is in vivo, Bassia scoparia. As for the experimental part: as §2, §3
Assay [10] relates to CHEAL. The assay is described as above. As to conditions: Chenopodium album, pre-emergence; Dose 90 g a.i./ha; 17-21 DAT; read-out: Pre-emergence percent weed growth and germination inhibition CHEAL. The class given is in vivo, Chenopodium album. Here is the method: as §2, §3
The subject of assay [11] is DIGSA. The description is as above. The class given is in vivo, Digitaria sanguinalis. As to conditions: Digitaria sanguinalis, pre-emergence; Dose 90 g a.i./ha; 17-21 DAT; read-out: Pre-emergence percent weed growth and germination inhibition DIGSA. Here is the method:
as §2, §3

In assay [12] the test system is ALOMY. Described as above. The class given is in vivo, Alopecurus myosuroides. To be noted: Alopecurus myosuroides, pre-emergence; Dose 90 g a.i./ha; 17-21 DAT; read-out: Pre-emergence percent weed growth and germination inhibition ALOMY. Here is the method: as §2, §3
The test system of assay [13] is ECHCG. The description is as above. Type of assay: in vivo, Echinochloa crus-galli. To be noted: Echinochloa crus-galli, pre-emergence; Dose 90 g a.i./ha; 17-21 DAT; read-out: Pre-emergence percent weed growth and germination inhibition ECHCG. Here is the method:
as §2, §3

The mark [14] stands for this setting: Loc 3, pyroxasulfone 90 g a.i./ha.

Read-outs that look alike come from different tables or passages of the source.

What is called inhibition is the percentage by which the read-out fell short of the control. For the molecule `Cn1nc(C(F)(F)F)c(CS(=O)(=O)C2=NOC(C)(C)C2)c1OC(F)F` [pyroxasulfone], the inhibition at 90 g/ha in [1] (Loc 1, pyroxasulfone 90 g a.i./ha) worked out at 97%; in assay [1] (Loc 2, pyroxasulfone 90 g a.i./ha), 74%; in assay [2] (setting [14]), 44%; in assay [2] (Loc 4, pyroxasulfone 90 g a.i./ha), 60%; in [2] (Loc 6, pyroxasulfone 90 g a.i./ha), 50%; in assay [3] (setting [14]), 34%. Moreover, the inhibition at 90 g/ha in assay [3] (Loc 5, pyroxasulfone 90 g a.i./ha) was determined as 75%; in [4], 88%; in assay [5] it was 74%; in [6], 77%; in [7] it was 73%; in assay [8], 83%. Further, the inhibition at 90 g/ha amounted to 80% in assay [9]; 100% in assay [10]; 78% in assay [11]; 47% in [12]; 100% in [13].
